Values of other authors, collected in patent US12274727B2 (Bazelet Health Systems, Inc., priority 2021, dated 2025).

Key:
[1] = not given; remark: listed apart in the source
[2] = with piperine, chronic or single dose regimen
[3] = not given; remark: listed apart in the source
[4] = after one single oral administration
[5] = not given; remark: listed apart in the source
[6] = patch testing in Europe
[7] = room temperature

C=C(C)[C@@H]1CCC(C)=C[C@H]1c1c(O)cc(CCCCC)cc1O [CBD, Cannabidiol]
sublingually absorbed (emulsified (micronized) CBD products): up to 35%
oral bioavailability (oral, humans): approximately 6%
bioavailability from smoked product (smoked): around 31%
sublingual bioavailability (sublingual): 13-19%
transdermal absorption (transdermal): about 10%
formation of THC, yield ([1]; artificial gastric fluid without pepsin, first study): 2.9%
conversion into THC (both 8 and 9 isomers) ([1]; simulated gastric fluid, another study): about 49%
increase in oral bioavailability compared to control group without piperine [2]: ~2.5 fold
degradation by light, average values ([3]; after 30 days): up to 15%
maximum degradation, average values ([3]; stored at 37° C. for 30 days): up to 20%

C=C1CC/C=C(\C)CC[C@@H]2[C@@H]1CC2(C)C [β-caryophyllene]
Tmax [4]: > 1 h

C=C(C)[C@@H]1CCC(C)=C[C@H]1c1c(O)cc(CCCCC)cc1O [pharmaceutical CBD]
patients reporting similar AEs ([5]; another trial): 86%
patients with AEs reported ([5]; randomized controlled trial in treatment resistant epilepsy): 93%

C=CC(C)(O)CCC=C(C)C (stereo not drawn) [Linalool]
people found to be allergic to the oxidized form [6]: 7%

CC(C)=CCC1C(=O)C(C(=O)CC(C)C)=C(O)C(O)(CC=C(C)C)C1=O (stereo not drawn) [Humulone, humulone]
time to degradation [7]: about 12 weeks
